“And” between values parts separate entries of the source, which are not always exact repeats. Identical values can stand only once.
Experiments:
[1] = system: human plasma protein; assay: Human plasma protein binding rate by equilibrium dialysis; details: positive, 5 μM
[2] = system: guinea pigs; assay: Active systemic anaphylaxis experiment in guinea pigs; details: first challenge
Method: The administration doses were 20 m/kg and 40 mg/kg and were about 1.5 and 3 times of the highest clinical intended dose. The day of the first administration was defined as day 1 of the experiment. Sensitization was performed 1 time every other day. 3 consecutive sensitizations were performed (i.e., sensitization on days 1, 3, and 5 of the experiment). On day 14 and day 21 after the last sensitization (i.e., on day 19 and day 26 of the experiment), the guinea pigs were challenged by intravenous injection at 2 times the dose of the sensitization dose, and the systemic reaction and death after the challenge were observed.

[3] = positive control group (8 mg/mL, 0.5 mL/guinea pig sensitization, i.v.)

Molecule: CC(C)NCC(O)COc1cccc2ccccc12 (stereo not drawn) [Propranolol]
- Binding rate (%) ([1]; human plasma): 87.27%
- Administration side (peak area ratio), Mean [1]: 3.774
- Administration side (peak area ratio), single replicates N = 1-3 [1]: 3.835 and 3.690 and 3.798
- Receiving side (peak area ratio), Mean [1]: 0.480
- Receiving side (peak area ratio), single replicates N = 1-3 [1]: 0.486 and 0.480 and 0.475
- T0 h (peak area ratio), Mean [1]: 5.286
- T0 h (peak area ratio), single replicates N = 1-3 [1]: 5.491 and 5.043 and 5.325
- T5 h (peak area ratio), Mean [1]: 4.896
- T5 h (peak area ratio), single replicates N = 1-3 [1]: 4.909 and 4.831 and 4.947
- Stability (%) ([1]; T5 h vs T0 h): 92.61%

B1: Positive control: 8 mg/mL egg white albumin solution, positive control of the anaphylaxis experiment (protein, UniProt P01012 2-386, looked up)
Ovalbumin: GSIGAASMEFCFDVFKELKVHHANENIFYCPIAIMSALAMVYLGAKDSTRTQINKVVRFDKLPGFGDSIEAQCGTSVNVHSSLRDILNQITKPNDVYSFSLASRLYAEERYPILPEYLQCVKELYRGGLEPINFQTAADQARELINSWVESQTNGIIRNVLQPSSVDSQTAMVLVNAIVFKGLWEKAFKDEDTQAMPFRVTEQESKPVQMMYQIGLFRVASMASEKMKILELPFASGTMSMLVLLPDEVSGLEQLESIINFEKLTEWTSSNVMEERKIKVYLPRMKMEEKYNLTSVLMAMGITDVFSSSANLSGISSAESLKISQAVHAAHAEINEAGREVVGSAEAGVDAASVSEEFRADHPFLFCIKHIATNAVLFFGRCVSP
- Time to death of all guinea pigs after challenge administration ([2]; positive control group): ≤ 7 min
- Anaphylaxis Degree of occurrence [2, 3]: extremely positive
- Anaphylaxis Incidence (%) [2, 3]: 100%
- Number of symptoms of anaphylaxis and occurrence proportion: 0 [2, 3]: 0
- Number of symptoms of anaphylaxis and occurrence proportion: 1-4 [2, 3]: 0
- Number of symptoms of anaphylaxis and occurrence proportion: 5-10 [2, 3]: 0
- Number of symptoms of anaphylaxis and occurrence proportion: 11-19 [2, 3]: 0
- Number of symptoms of anaphylaxis and occurrence proportion: 20 [2, 3]: 6/6

Source: patent publication US20250213471A1, “PEMETREXED DISODIUM LIQUID COMPOSITION, PREPARATION METHOD THEREFOR AND USE THEREOF” (SHANGHAI AURORA BIOTECHNOLOGY CO., LTD., priority 2022, published 2025)
